Read-outs that look alike come from different tables or passages of the source.
Assays:
Assay in all cases: Test B pre-/postemergence plant response
Type in all cases: in vivo
kochia (Kochia scoparia) = conditions: for pest or weed control at 125 g/ha: 125 g ai/ha
Method in brief: (§1)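 Steps: sow seed in loam–sand soil and spray preemergence, or grow plants in peat-based medium to 1–4 leaves (2–18 cm) and spray postemergence; formulation is non-phytotoxic solvent plus surfactant; hold in greenhouse 13–15 days; score visually vs controls, 0 = no effect, 100 = complete control.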

[1] = system: lambsquarters (Chenopodium album); conditions: for pest or weed control at 31 g/ha: 31 g ai/ha; for pest or weed control at 125 g/ha: 125 g ai/ha
Method in brief: as §1

[2] = system: large crabgrass (Digitaria sanguinalis); conditions: for pest or weed control at 31 g/ha: 31 g ai/ha; for pest or weed control at 125 g/ha: 125 g ai/ha
Method in brief: as §1

[3] = system: pigweed (Amaranthus retroflexus); conditions: for pest or weed control at 31 g/ha: 31 g ai/ha; for pest or weed control at 125 g/ha: 125 g ai/ha
Method in brief: as §1

[4] = system: ragweed (common ragweed, Ambrosia elatior); conditions: for pest or weed control at 31 g/ha: 31 g ai/ha; for pest or weed control at 125 g/ha: 125 g ai/ha
Method in brief: as §1

soybean (Glycine max) = system: soybean (Glycine max)
Method in brief: as §1

[5] = system: velvetleaf (Abutilon theophrasti); conditions: for pest or weed control at 31 g/ha: 31 g ai/ha; for pest or weed control at 125 g/ha: 125 g ai/ha
Method in brief: as §1

wild oat (Avena fatua) = conditions: for pest or weed control at 31 g/ha: 31 g ai/ha; for pest or weed control at 125 g/ha: 125 g ai/ha
Method in brief: as §1

[6] = system: yellow nutsedge (Cyperus esculentus); conditions: for pest or weed control at 31 g/ha: 31 g ai/ha; for pest or weed control at 125 g/ha: 125 g ai/ha
Method in brief: as §1

[7] = Preemergence, 250 g ai/ha, 0 to 100 scale
[8] = 62 g ai/ha, postemergence, 0 is no effect, 100 is complete control, 13 to 15 days

**Q.** What does the source list for COCCCn1c(-c2ccccc2)ncc(C(=O)C2=C(O)CCCC2=O)c1=O [Compound 81, 5-[(2-hydroxy-6-oxo-cyclohexen-1-yl)carbonyl]-3-(3-methoxypropyl)-2-phenyl-4(3H)-pyrimidinone]?
**A.** pest or weed control at 125 g/ha (kochia (Kochia scoparia); Bassia scoparia, post-emergence, Postemergence, visual rating after 13 to 15 days, scale 0 (no effect) to 100 (complete control)): 90%; pest or weed control at 250 g/ha (kochia (Kochia scoparia); Bassia scoparia, post-emergence, Postemergence, 250 g ai/ha, scale 0 to 100 (0 no effect, 100 complete control), read-out: Plant response rating, Kochia): 100%; pest or weed control at 31 g/ha (kochia (Kochia scoparia); Bassia scoparia, pre-emergence, Preemergence, 31 g ai/ha, scale 0 to 100 (0 no effect, 100 complete control), read-out: Plant response rating, Kochia): 45%; pest or weed control at 62 g/ha (kochia (Kochia scoparia); Bassia scoparia, pre-emergence, Preemergence, 62 g ai/ha, scale 0 to 100 (0 no effect, 100 complete control), read-out: Plant response rating, Kochia): 55%; pest or weed control at 125 g/ha (kochia (Kochia scoparia); Bassia scoparia, pre-emergence, Preemergence, scale 0 to 100, 0 no effect, 100 complete control, read-out: Plant response rating, Kochia): 65%; Kochia plant response rating (kochia (Kochia scoparia); [7]): 70; Lambsquarters plant response rating (0 to 100 scale) [1, 8]: 98; pest or weed control at 31 g/ha ([1]; Chenopodium album, post-emergence, postemergence, scale 0 to 100, 0 is no effect, 100 is complete control, read-out: Plant response rating, Lambsquarters): 95%; pest or weed control at 125 g/ha ([1]; Chenopodium album, post-emergence, Postemergence, visual rating after 13 to 15 days, scale 0 (no effect) to 100 (complete control)): 100%; pest or weed control at 250 g/ha ([1]; Chenopodium album, post-emergence, Postemergence, 250 g ai/ha, scale 0 to 100 (0 no effect, 100 complete control), read-out: Plant response rating, Lambsquarters): 100%; pest or weed control at 31 g/ha ([1]; Chenopodium album, pre-emergence, Preemergence, scale 0 to 100 (0 no effect, 100 complete control), read-out: Plant response rating, Lambsquarters): 98%; pest or weed control at 62 g/ha ([1]; Chenopodium album, pre-emergence, Preemergence, 62 g ai/ha, scale 0 to 100, 0 no effect, 100 complete control, read-out: Plant response rating, Lambsquarters): 98%; pest or weed control at 125 g/ha ([1]; Chenopodium album, pre-emergence, Preemergence, scale 0 to 100, 0 no effect, 100 complete control, read-out: Plant response rating, Lambsquarters): 98%; Lambsquarters plant response rating [1, 7]: 98; Crabgrass, Large plant response rating (0 to 100 scale) [2, 8]: 95; pest or weed control at 31 g/ha ([2]; Digitaria sanguinalis, post-emergence, postemergence, scale 0 to 100, 0 is no effect, 100 is complete control, read-out: Plant response rating, Crabgrass, Large): 85%; pest or weed control at 125 g/ha ([2]; Digitaria sanguinalis, post-emergence, Postemergence, visual rating after 13 to 15 days, scale 0 (no effect) to 100 (complete control)): 95%; pest or weed control at 250 g/ha ([2]; Digitaria sanguinalis, post-emergence, Postemergence, 250 g ai/ha, scale 0 to 100 (0 no effect, 100 complete control), read-out: Plant response rating, Crabgrass, Large): 98%; pest or weed control at 31 g/ha ([2]; Digitaria sanguinalis, pre-emergence, Preemergence, scale 0 to 100 (0 no effect, 100 complete control), read-out: Plant response rating, Crabgrass, Large): 100%; pest or weed control at 62 g/ha ([2]; Digitaria sanguinalis, pre-emergence, Preemergence, 62 g ai/ha, scale 0 to 100, 0 no effect, 100 complete control, read-out: Plant response rating, Crabgrass, Large): 100%; pest or weed control at 125 g/ha ([2]; Digitaria sanguinalis, pre-emergence, Preemergence, scale 0 to 100, 0 no effect, 100 complete control, read-out: Plant response rating, Crabgrass, Large): 100%; Crabgrass, Large plant response rating [2, 7]: 100; Pigweed plant response rating (0 to 100 scale) [3, 8]: 100; pest or weed control at 31 g/ha ([3]; Amaranthus retroflexus, post-emergence, postemergence, scale 0 to 100, 0 is no effect, 100 is complete control, read-out: Plant response rating, Pigweed): 98%; pest or weed control at 125 g/ha ([3]; Amaranthus retroflexus, post-emergence, Postemergence, visual rating after 13 to 15 days, scale 0 (no effect) to 100 (complete control)): 100%; pest or weed control at 250 g/ha ([3]; Amaranthus retroflexus, post-emergence, Postemergence, 250 g ai/ha, scale 0 to 100 (0 no effect, 100 complete control), read-out: Plant response rating, Pigweed): 100%; pest or weed control at 31 g/ha ([3]; Amaranthus retroflexus, pre-emergence, Preemergence, scale 0 to 100 (0 no effect, 100 complete control), read-out: Plant response rating, Pigweed): 100%; pest or weed control at 62 g/ha ([3]; Amaranthus retroflexus, pre-emergence, Preemergence, 62 g ai/ha, scale 0 to 100 (0 no effect, 100 complete control), read-out: Plant response rating, Pigweed): 100%; pest or weed control at 125 g/ha ([3]; Amaranthus retroflexus, pre-emergence, Preemergence, scale 0 to 100, 0 no effect, 100 complete control, read-out: Plant response rating, Pigweed): 100%; Pigweed plant response rating [3, 7]: 100; Ragweed plant response rating (0 to 100 scale) [4, 8]: 80; pest or weed control at 31 g/ha ([4]; Ambrosia artemisiifolia, post-emergence, 360 h, postemergence, scale 0 to 100, 0 is no effect, 100 is complete control, read-out: Plant response rating, Ragweed): 75%; pest or weed control at 125 g/ha ([4]; Ambrosia artemisiifolia, post-emergence, 360 h, Postemergence, visual rating after 13 to 15 days, scale 0 (no effect) to 100 (complete control)): 98%; pest or weed control at 250 g/ha ([4]; Ambrosia artemisiifolia, post-emergence, 360 h, Postemergence, 250 g ai/ha, scale 0 to 100 (0 no effect, 100 complete control), read-out: Plant response rating, Ragweed): 100%; pest or weed control at 31 g/ha ([4]; Ambrosia artemisiifolia, pre-emergence, 360 h, Preemergence, scale 0 to 100 (0 no effect, 100 complete control), read-out: Plant response rating, Ragweed): 60%; pest or weed control at 62 g/ha ([4]; Ambrosia artemisiifolia, pre-emergence, 360 h, Preemergence, 62 g ai/ha, scale 0 to 100 (0 no effect, 100 complete control), read-out: Plant response rating, Ragweed): 85%; pest or weed control at 125 g/ha ([4]; Ambrosia artemisiifolia, pre-emergence, 360 h, Preemergence, scale 0 to 100, 0 no effect, 100 complete control, read-out: Plant response rating, Ragweed): 90%; Ragweed plant response rating [4, 7]: 90; Soybean plant response rating (0 to 100 scale) (soybean (Glycine max); [8]): 95; plant injury at 31 g/ha (soybean (Glycine max); Glycine max, post-emergence, 31 g ai/ha, postemergence, scale 0 to 100, 0 is no effect, 100 is complete control, read-out: Plant response rating, Soybean): 85%; plant injury at 125 g/ha (soybean (Glycine max); Glycine max, post-emergence, Postemergence, 125 g ai/ha, visual rating after 13 to 15 days, scale 0 (no effect) to 100 (complete control)): 95%; plant injury at 250 g/ha (soybean (Glycine max); Glycine max, post-emergence, Postemergence, 250 g ai/ha, scale 0 to 100 (0 no effect, 100 complete control), read-out: Plant response rating, Soybean): 98%; Velvetleaf plant response rating (0 to 100 scale) [5, 8]: 100; pest or weed control at 31 g/ha ([5]; Abutilon theophrasti, post-emergence, 360 h, postemergence, scale 0 to 100, 0 is no effect, 100 is complete control, read-out: Plant response rating, Velvetleaf): 100%; pest or weed control at 125 g/ha ([5]; Abutilon theophrasti, post-emergence, 360 h, Postemergence, visual rating after 13 to 15 days, scale 0 (no effect) to 100 (complete control)): 100%; pest or weed control at 250 g/ha ([5]; Abutilon theophrasti, post-emergence, 360 h, Postemergence, 250 g ai/ha, scale 0 to 100 (0 no effect, 100 complete control), read-out: Plant response rating, Velvetleaf): 100%; pest or weed control at 31 g/ha ([5]; Abutilon theophrasti, pre-emergence, 360 h, Preemergence, scale 0 to 100 (0 no effect, 100 complete control), read-out: Plant response rating, Velvetleaf): 100%; pest or weed control at 62 g/ha ([5]; Abutilon theophrasti, pre-emergence, 360 h, Preemergence, 62 g ai/ha, scale 0 to 100 (0 no effect, 100 complete control), read-out: Plant response rating, Velvetleaf): 100%; pest or weed control at 125 g/ha ([5]; Abutilon theophrasti, pre-emergence, 360 h, Preemergence, scale 0 to 100, 0 no effect, 100 complete control, read-out: Plant response rating, Velvetleaf): 100%; Velvetleaf plant response rating [5, 7]: 100; Oat, Wild plant response rating (0 to 100 scale) (wild oat (Avena fatua); [8]): 35; pest or weed control at 31 g/ha (wild oat (Avena fatua); Avena fatua, post-emergence, postemergence, scale 0 to 100, 0 is no effect, 100 is complete control, read-out: Plant response rating, Oat, Wild): 25%; pest or weed control at 125 g/ha (wild oat (Avena fatua); Avena fatua, post-emergence, Postemergence, visual rating after 13 to 15 days, scale 0 (no effect) to 100 (complete control)): 50%; pest or weed control at 250 g/ha (wild oat (Avena fatua); Avena fatua, post-emergence, Postemergence, 250 g ai/ha, scale 0 to 100 (0 no effect, 100 complete control), read-out: Plant response rating, Oat, Wild): 55%; pest or weed control at 31 g/ha (wild oat (Avena fatua); Avena fatua, pre-emergence, Preemergence, scale 0 to 100 (0 no effect, 100 complete control), read-out: Plant response rating, Oat, Wild): 0%; pest or weed control at 62 g/ha (wild oat (Avena fatua); Avena fatua, pre-emergence, Preemergence, 62 g ai/ha, scale 0 to 100 (0 no effect, 100 complete control), read-out: Plant response rating, Oat, Wild): 0%; pest or weed control at 125 g/ha (wild oat (Avena fatua); Avena fatua, pre-emergence, Preemergence, scale 0 to 100, 0 no effect, 100 complete control, read-out: Plant response rating, Oat, Wild): 0%; Oat, Wild plant response rating (wild oat (Avena fatua); [7]): 0; Nutsedge, Yellow plant response rating (0 to 100 scale) [6, 8]: 80; pest or weed control at 31 g/ha ([6]; Cyperus, post-emergence, postemergence, scale 0 to 100, 0 is no effect, 100 is complete control, read-out: Plant response rating, Nutsedge, Yellow): 65%; pest or weed control at 125 g/ha ([6]; Cyperus, post-emergence, Postemergence, visual rating after 13 to 15 days, scale 0 (no effect) to 100 (complete control)): 80%; pest or weed control at 250 g/ha ([6]; Cyperus, post-emergence, Postemergence, 250 g ai/ha, scale 0 to 100 (0 no effect, 100 complete control), read-out: Plant response rating, Nutsedge, Yellow): 80%; pest or weed control at 31 g/ha ([6]; Cyperus, pre-emergence, Preemergence, scale 0 to 100 (0 no effect, 100 complete control), read-out: Plant response rating, Nutsedge, Yellow): 10%; pest or weed control at 62 g/ha ([6]; Cyperus, pre-emergence, Preemergence, 62 g ai/ha, scale 0 to 100 (0 no effect, 100 complete control), read-out: Plant response rating, Nutsedge, Yellow): 75%; pest or weed control at 125 g/ha ([6]; Cyperus, pre-emergence, Preemergence, scale 0 to 100, 0 no effect, 100 complete control, read-out: Plant response rating, Nutsedge, Yellow): 95%; Nutsedge, Yellow plant response rating [6, 7]: 95

Reference: patent US8952024B2, “Herbicidal pyrimidone derivatives” (E I du Pont de Nemours and Company, priority 2009, dated 2015)
